Measured values published in ChEMBL document CHEMBL6078630, “Design, synthesis, and bioactivity investigation of novel cyclic lipopeptide antibiotics targeting top-priority multidrug-resistant gram-negative bacteria” (Eur J Med Chem, 2024).
Bridge positions count the residues as written; N and C are the ends. Square brackets hold non-standard residues; d marks the D form. Peptide text beside a SMILES is read from it. * marks the point of attachment. Heptanoyl(6-Me) = CC(C)CCCCC(=O)*; Octanoyl(6-Me) = CCC(C)CCCCC(=O)*; X1 = CC[C@H](C)CCCCC(=O)*; Dab = NCC[C@H](N)C(=O)O

How the values were obtained:
Escherichia coli = test: Antibacterial activity against Escherichia coli ATCC BAA-2523 infected in ICR mouse model administered intravenously with compound at 1 and 6 hrs post-infection and measured after 7 days; type: functional; conditions: ATCC BAA-2523, 168 h, route iv, time 7 day
Acinetobacter baumannii = test: Antibacterial activity against carbapenem-resistant Acinetobacter baumannii NCTC13304 infected in ICR mouse model administered intravenously with compound at 1 and 6 hrs post-infection and measured after 7 days; type: functional; conditions: NCTC13304, 168 h, route iv, time 7 day
Klebsiella pneumoniae = test: Antibacterial activity against carbapenem-resistant Klebsiella pneumoniae ATCC BAA-1705 infected in ICR mouse model administered intravenously with compound at 1 and 6 hrs post-infection and measured after 7 days; type: functional; conditions: ATCC BAA-1705, 168 h, route iv, time 7 day
[1] = Acute toxicity in iv dosed Swiss mouse assessed as maximum tolerated dose measured after 24 hrs; type: organism-based; conditions: in vivo
[2] = Nephrotoxicity against Sprague-Dawley rat assessed as increase in BUN level at 4 mg/kg, iv administered for 7 days by fully automated biochemistry analyzer XR200PLUS; type: toxicity, organism-based; conditions: in vivo, 168 h, time 7 day
[3] = Renal cytotoxicity against HK-2 cells incubated for 72 hrs by CCK8 assay; type: toxicity, cell-based; conditions: human
[4] = Nephrotoxicity against Sprague-Dawley rat assessed as increase in CRE level at 4 mg/kg, iv administered for 7 days by fully automated biochemistry analyzer XR200PLUS; type: toxicity, organism-based; conditions: in vivo, 168 h, time 7 day
[5] = Protein binding in human plasma assessed as unbound fraction at 0.2 uM incubated for 6 hrs by LC-MS/MS analysis; type: ADME, cell-free

With `CCC(C)CCCCC(=O)N[C@@H](CCN)C(=O)N[C@H](C(=O)N[C@@H](CCN)C(=O)N[C@H]1CCNC(=O)[C@H]([C@@H](C)O)NC(=O)[C@H](CCN)NC(=O)[C@H](CCN)NC(=O)[C@H](CC(C)C)NC(=O)[C@@H](CC(C)C)NC(=O)[C@H](CCN)NC1=O)[C@@H](C)O` (stereo partly drawn) ({Octanoyl(6-Me)}-[Dab]T[Dab][Dab][Dab][dL]L[Dab][Dab]T; lactam 4-C) the ED50 (Escherichia coli) was 0.47 mg/kg, the ED50 (Acinetobacter baumannii) was 0.98 mg/kg and the ED50 (Klebsiella pneumoniae) was 0.39 mg/kg.

For `CC(C)CCCCC(=O)N[C@@H](CCN)C(=O)N[C@H](C(=O)N[C@@H](CCN)C(=O)N[C@H]1CCNC(=O)[C@H]([C@@H](C)O)NC(=O)[C@H](CCN)NC(=O)[C@H](CCN)NC(=O)[C@H](CC(C)C)NC(=O)[C@@H](Cc2ccccc2)NC(=O)[C@H](CCN)NC1=O)[C@@H](C)O.CC[C@H](C)CCCCC(=O)N[C@@H](CCN)C(=O)N[C@H](C(=O)N[C@@H](CCN)C(=O)N[C@H]1CCNC(=O)[C@H]([C@@H](C)O)NC(=O)[C@H](CCN)NC(=O)[C@H](CCN)NC(=O)[C@H](CC(C)C)NC(=O)[C@@H](Cc2ccccc2)NC(=O)[C@H](CCN)NC1=O)[C@@H](C)O` (X1-[Dab]T[Dab][Dab][Dab][dF]L[Dab][Dab]T; lactam 4-C), the MTD at 24 h [1] was 5.4 mg/kg, the Activity [2] was “Toxic” and the IC50 at 72 h [3] was 66.3 µg/mL. For the same compound, the Activity [4] was “Toxic”.

In the case of `CC(C)CCCCC(=O)N[C@@H](CCN)C(=O)N[C@H](C(=O)N[C@@H](CCN)C(=O)N[C@H]1CCNC(=O)[C@H]([C@@H](C)O)NC(=O)[C@H](CCN)NC(=O)[C@H](CCN)NC(=O)[C@H](CC(C)C)NC(=O)[C@@H](Cc2ccccc2)NC(=O)[C@H](CCN)NC1=O)[C@@H](C)O` ({Heptanoyl(6-Me)}-[Dab]T[Dab][Dab][Dab][dF]L[Dab][Dab]T; lactam 4-C), the fraction unbound at 6 h, 0.2 µM [5] is reported as 0.099.
